Test results: patent US12234248B2, “Co-crystal compounds comprising lithium ions and isonicotinamide” (UNIVERSITY OF LIMERICK, priority 2017, dated 2025)
Where “and” joins values, the source holds several entries; their conditions need not be identical. Equal entries are not always repeated.

Key:
[1] = Stability of crystalline material under warm humid conditions (40° C., 75% relative humidity), PXRD before and after; assay type: physicochemical; settings: for Stable?: stored at 40° C., 75% relative humidity, stable = retained crystal form for at least two weeks by PXRD
Experimental: The stability of these compounds under warm humid conditions was assessed as follows:
The crystalline material was stored at 40° C. in an atmosphere of 75% relative humidity.
Compounds were classed as stable if they retained their crystal form for at least two weeks as verified by examination of PXRD patterns collected before and after exposure to humidity.
It can be seen that the pattern obtained after 2 months at 75% relative humidity and 40° C. (upper trace) in this case is different.

[2] = Bioavailability in vivo in rats: lithium in plasma and brain by ICP-OES after oral administration; settings: for BRAIN CONC., Time(h) 2.00 / PLASMA CONC, Time(h) 2.00: 2 h; for BRAIN CONC., Time(h) 2.00 / BRAIN CONC., Time(h) 24.00 / BRAIN CONC., Time(h) 48.00 / BRAIN CONC., Time(h) 72.00: lithium in brain; for BRAIN CONC., Time(h) 2.00 / PLASMA CONC, Time(h) 2.00 / BRAIN CONC., Time(h) 24.00 / PLASMA CONC, Time(h) 24.00 / BRAIN CONC., Time(h) 48.00 / PLASMA CONC, Time(h) 48.00 / BRAIN CONC., Time(h) 72.00 / PLASMA CONC, Time(h) 72.00: individual rats (three per time); for PLASMA CONC, Time(h) 2.00 / PLASMA CONC, Time(h) 24.00 / PLASMA CONC, Time(h) 48.00 / PLASMA CONC, Time(h) 72.00: lithium in plasma; for BRAIN CONC., Time(h) 24.00 / PLASMA CONC, Time(h) 24.00: 24 h; for BRAIN CONC., Time(h) 48.00 / PLASMA CONC, Time(h) 48.00: 48 h; for BRAIN CONC., Time(h) 72.00 / PLASMA CONC, Time(h) 72.00: 72 h
Experimental: Male Sprague-Dawley rats, weighing 240-290 g, were treated through gastric intubation with formulations of lithium and compared with lithium carbonate as a reference. For each formulation a group of 12 rats was treated. 4 mEq/kg of lithium were orally administered, after suspension in 2 mL of corn seeds oil (“Olio Cuore”).
Four intervals' post-administration time (2, 24, 48 and 72 hours) were considered and three rats for each of them, employing the protocol used by Zaworotko and coworkers (Smith et al., Mol. Pharmaceutics 2013, 10, 4728-4738). At each time interval blood samples were collected through intra-cardiac […], these were treated with 50 μL of sodium heparin and centrifuged for 10 min at 1600 rpm. Plasma samples of approximately […] each were thus obtained. The brain was explanted in toto with perfusion with phosphate buffered saline (PBS) in order to preserve it in a viable state. The plasma and brain samples were immediately frozen at a temperature of −80° C., after measuring the weight of the brains.
In order to determine the concentration of the lithium by means of the ICP-OES (Inductively Coupled Plasma Optical Emission Spectometry) analysis, plasma and brain samples were purified and mineralized, respectively to obtain solutions suitable for analysis.
A 0.5 mL aliquot was taken from each sample, to which were added equal amounts of MilliQ water and concentrated nitric acid, in order to bring the lithium ion in solution in the form of LiNO3 and to obtain the precipitation of the proteins. At this point, each sample was sonicated for 10 min in an ultrasonic bath and diluted to a volume of 5.0 mL.
All samples were subjected to centrifugation for a period of 40 min, at a rotational speed of 6000 rpm, to obtain complete plasma proteins/solution separation. At the end supernatant liquid containing lithium was diluted to a final volume of 15 mL by adding MilliQ water. The obtained solutions were stored at a temperature of 4° C. until analysis.
The purpose of this phase was to obtain liquid samples, suitable to ICP-OES analysis, containing lithium in solution, starting from the solid organic tissue of the brain. The mineralization process allows the complete degradation of organic substances until the total transformation into simple inorganic substances.
The first operation performed was that the drying of the fabric, obtained through the use of a digester open PerkinElmer SPB 100-12: each sample of brain has been inserted in special containers Digitube™ 100 mL and maintained at a temperature of 80° C. for 120 min.
The second step involved the mineralization true and proper brain: each sample were added to 10 mL of concentrated nitric acid and 1.0 mL of hydrogen peroxide, then the system was brought to a temperature of 120° C. for 120 min. until the complete mineralization. With this procedure you get the desired biological degradation of organic compounds and the consequent passage of lithium in solution. The solutions thus obtained were collected, brought to a final volume of 20 mL with MilliQ water and preserved at a temperature of 4° C. until time of analysis.
In order to obtain the determination of lithium ion concentrations in the samples previously prepared, optical emission spectrometry inductively coupled plasma ICP-OES was used (PerkinElmer Optima 8000 spectrometer).
The analysis was conducted at the fixed wavelength of lithium (λ=670.784 nm) and the intensity of the radiation emitted by each sample was measured and compared standard solutions.
Plasma and brain concentration data were processed using a non-compartmental approach using WinNonlin® software (Pharsight Corporation, USA) and Microsoft Excel XP (Microsoft Corporation, […]).

[3] = rat brain, 4 mEq/kg lithium oral, non-compartmental
[4] = rat brain, 4 mEq/kg lithium oral, terminal phase
[5] = rat brain, 4 mEq/kg lithium oral, time 0 to last quantifiable point
[6] = rat brain, relative to lithium carbonate
[7] = rat plasma, 4 mEq/kg lithium oral, non-compartmental
[8] = rat plasma, 4 mEq/kg lithium oral, terminal phase
[9] = rat plasma, relative to lithium carbonate

COc1cccc(C(=O)[O-])c1.O=C(O)[C@@H]1CCCN1.[Li+] [Compound 6, [Li(3-methoxybenzoate)(L-proline)]n]
Stable? [1]: Yes
Cmax (brain) [2, 3]: 4.3733 µg/g
Tmax (brain) [2, 3]: 24 h
t½_Lambda_z (brain) [2, 4]: 15.3888 h
AUClast (brain) [2, 5]: 172.7467 mg·h/g
Relative Brain BA (UL crystal forms, oral vs Li2CO3, oral) [2, 6]: 74.33%
Cmax (plasma) [2, 7]: 6383.3 ng/mL
Tmax (plasma) [2, 7]: 24 h
t½_Lambda_z (plasma) [2, 8]: 10.4363 h
Relative Plasma BA (UL crystal forms, oral vs Li2CO3 oral) [2, 9]: 74.07%
BRAIN CONC., Time(h) 2.00 ([2]; rat, 4 mEq/kg lithium oral): 0.64 µg/g and 0.44 µg/g and 0.73 µg/g
PLASMA CONC, Time(h) 2.00 ([2]; rat, 4 mEq/kg lithium oral): 3030 ng/mL and 1430 ng/mL and 3380 ng/mL
BRAIN CONC., Time(h) 24.00 ([2]; rat, 4 mEq/kg lithium oral): 4.54 µg/g and 4.21 µg/g and 4.37 µg/g
PLASMA CONC, Time(h) 24.00 ([2]; rat, 4 mEq/kg lithium oral): 5950 ng/mL and 4760 ng/mL and 8440 ng/mL
BRAIN CONC., Time(h) 48.00 ([2]; rat, 4 mEq/kg lithium oral): 2.84 µg/g and 2.06 µg/g and 2.46 µg/g
PLASMA CONC, Time(h) 48.00 ([2]; rat, 4 mEq/kg lithium oral): 670 ng/mL and 740 ng/mL and 870 ng/mL
BRAIN CONC., Time(h) 72.00 ([2]; rat, 4 mEq/kg lithium oral): 0.59 µg/g and 0.49 µg/g and 0.43 µg/g
PLASMA CONC, Time(h) 72.00 ([2]; rat, 4 mEq/kg lithium oral): 230 ng/mL and 310 ng/mL and 250 ng/mL

NC(=O)c1ccncc1.NC(=O)c1ccncc1.O=C([O-])/C=C/C(=O)[O-].[Li+].[Li+] [Compound 2, [Li2(fumarate)(isonicotinamide)2]n]
Stable? [1]: Yes
AUC (Cerebral)/AUC (Plasma) ([2]; rat, in vivo): 1.208
AUC(0-t) ([2]; rat, in vivo, po): 147 µg·h/mL
AUClast (brain) ([2]; rat, in vivo, po): 0.177 mg·h/g
Cmax (brain) ([2]; rat, in vivo, po): 4.0200 µg/g
Cmax (plasma) ([2]; rat, in vivo, po): 3976.7 ng/mL
Relative Brain BA (UL crystal forms, oral vs Li2CO3, oral) ([2]; rat, in vivo, po): 76.37%
Relative Plasma BA (UL crystal forms, oral vs Li2CO3 oral) ([2]; rat, in vivo, po): 54.52%
Tmax (brain) ([2]; rat, in vivo, po): 24 h
Tmax (plasma) ([2]; rat, in vivo, po): 24 h
t½_Lambda_z (brain) ([2]; rat, in vivo, po): 16.7775 h
t½_Lambda_z (plasma) ([2]; rat, in vivo, po): 14.0638 h

COc1ccccc1C(=O)[O-].O=C(O)[C@@H]1CCCN1.[Li+] [Compound 1, [Li(2-methoxybenzoate)(L-proline)]n]
PXRD pattern after storage compared with initial pattern ([1]; after 2 months at 75% relative humidity and 40° C.): substantially identical
Stable? [1]: Yes
Cmax (brain) [2, 3]: 3.5067 µg/g
Tmax (brain) [2, 3]: 24 h
t½_Lambda_z (brain) [2, 4]: 18.9045 h
AUClast (brain) [2, 5]: 172.2533 mg·h/g
Relative Brain BA (UL crystal forms, oral vs Li2CO3, oral) [2, 6]: 74.12%
Cmax (plasma) [2, 7]: 4120 ng/mL
Tmax (plasma) [2, 7]: 24 h
t½_Lambda_z (plasma) [2, 8]: 12.9141 h
Relative Plasma BA (UL crystal forms, oral vs Li2CO3 oral) [2, 9]: 58.42%
BRAIN CONC., Time(h) 2.00 ([2]; rat, 4 mEq/kg lithium oral): 0.96 µg/g and 0.71 µg/g and 0.68 µg/g
PLASMA CONC, Time(h) 2.00 ([2]; rat, 4 mEq/kg lithium oral): 3430 ng/mL and 1780 ng/mL and 2310 ng/mL
BRAIN CONC., Time(h) 24.00 ([2]; rat, 4 mEq/kg lithium oral): 3.64 µg/g and 4.28 µg/g and 2.60 µg/g
PLASMA CONC, Time(h) 24.00 ([2]; rat, 4 mEq/kg lithium oral): 3850 ng/mL and 6010 ng/mL and 2500 ng/mL
BRAIN CONC., Time(h) 48.00 ([2]; rat, 4 mEq/kg lithium oral): 2.81 µg/g and 4.50 µg/g and 2.06 µg/g
PLASMA CONC, Time(h) 48.00 ([2]; rat, 4 mEq/kg lithium oral): 970 ng/mL and 1780 ng/mL and 850 ng/mL
BRAIN CONC., Time(h) 72.00 ([2]; rat, 4 mEq/kg lithium oral): 0.62 µg/g and 0.68 µg/g and 0.51 µg/g
PLASMA CONC, Time(h) 72.00 ([2]; rat, 4 mEq/kg lithium oral): 230 ng/mL and 400 ng/mL and 310 ng/mL

COc1ccc(C(=O)[O-])cc1.O=C(O)[C@@H]1CCCN1.[Li+] [Compound 5, [Li(4-methoxybenzoate)(L-proline)]n]
Stable? [1]: Yes
Cmax (brain) [2, 3]: 4.9833 µg/g
Tmax (brain) [2, 3]: 48 h
t½_Lambda_z (brain) [2, 4]: 13.4751 h
AUClast (brain) [2, 5]: 229.3867 mg·h/g
concentration of lithium in the brain compared with lithium carbonate ([2]; rat brain, after 48 hours, FIG. 12): higher
Relative Brain BA (UL crystal forms, oral vs Li2CO3, oral) [2, 6]: 98.70%
Cmax (plasma) [2, 7]: 6080 ng/mL
Tmax (plasma) [2, 7]: 24 h
t½_Lambda_z (plasma) [2, 8]: 16.5057 h
Relative Plasma BA (UL crystal forms, oral vs Li2CO3 oral) [2, 9]: 90.41%
BRAIN CONC., Time(h) 2.00 ([2]; rat, 4 mEq/kg lithium oral): 0.23 µg/g and 0.48 µg/g and 0.46 µg/g
PLASMA CONC, Time(h) 2.00 ([2]; rat, 4 mEq/kg lithium oral): 2820 ng/mL and 4020 ng/mL and 2650 ng/mL
BRAIN CONC., Time(h) 24.00 ([2]; rat, 4 mEq/kg lithium oral): 4.44 µg/g and 4.46 µg/g and 2.54 µg/g
PLASMA CONC, Time(h) 24.00 ([2]; rat, 4 mEq/kg lithium oral): 7150 ng/mL and 6800 ng/mL and 4290 ng/mL
BRAIN CONC., Time(h) 48.00 ([2]; rat, 4 mEq/kg lithium oral): 4.42 µg/g and 4.76 µg/g and 5.77 µg/g
PLASMA CONC, Time(h) 48.00 ([2]; rat, 4 mEq/kg lithium oral): 1450 ng/mL and 1910 ng/mL and 3650 ng/mL
BRAIN CONC., Time(h) 72.00 ([2]; rat, 4 mEq/kg lithium oral): 1.08 µg/g and 0.43 µg/g and 2.84 µg/g
PLASMA CONC, Time(h) 72.00 ([2]; rat, 4 mEq/kg lithium oral): 630 ng/mL and 480 ng/mL and 1320 ng/mL

[Li(camphorsulfonate)(water)2] [Compound 29]
Stable? [1]: No

O=C([O-])c1ccccc1.[Li+] [Compound 18, [Li (benzoate)]n]
Stable? [1]: Yes
